Article PMC12040169 (PLOS Biology, 2025)

Assay: in vitro
Conditions: human, hela cells, % viability

In order of falling viability at 28.5 h, 10 µM:
1. C(=C\c1ccccc1)/CN1CCC(Cc2ccccc2)CC1 [CBK126384]  119%
2. COc1ccc(Cl)cc1N1CCN(Cc2ccc3ccccc3c2)CC1 [CBK126414]  116%
3. CCNC(=O)N1CC2(CCN(Cc3ccc(OC(F)(F)F)cc3)CC2)c2ccccc21 [CBK126688]  115%
4. CCc1nnc(NS(=O)(=O)c2ccc(NCc3cc(Cl)cc(Cl)c3O)cc2)s1 [CBK126494]  112%
5. CC(C)C(=O)N1CC2(CCN(CCCCC3NC(=O)NC3=O)CC2)c2ccccc21 (stereo not shown) [CBK131471]  111%
6. CC(C)C(=O)N1CC2(CCN(Cc3nc4ccccc4[nH]3)CC2)c2ccccc21 [CBK126719]  110%
7. CC(C)C(=O)N1CC2(CCN(Cc3ncc[nH]3)CC2)c2ccccc21 [CBK126731]  109%
8. O=C(c1ccc(OC(F)(F)F)cc1)N1CCC2(CCN(C(=O)c3cc(F)c(F)cc3F)C2)C1 (stereo not shown) [CBK131384]  108%
9. Cc1nc(CN2CCC3(CC2)CN(C(=O)C(C)C)c2ccccc23)cs1 [CBK131476]  108%
10. O=C(c1cc(F)c(F)cc1F)N1CCC2(CCN(C(=O)C3COc4ccccc4O3)C2)C1 (stereo not shown) [CBK131390]  107%
11. O=C(CO)N1CC2(CCN(Cc3ccc(OC(F)(F)F)cc3)CC2)c2ccccc21 [CBK131493]  106%
12. CN1CCN(C(=O)c2ccc(Cl)cc2)CC1 [CBK126096]  104%
13. O=c1cc(CN2CCC(Cc3ccccc3)CC2)[nH]c(=O)[nH]1 [CBK126388]  104%
14. COc1ccc(Cl)cc1N1CCN(Cc2ccc(OC(F)(F)F)cc2)CC1 [CBK126405]  104%
15. Cc1ccc2nc(C)cc(NCCO)c2c1 [CBK126909]  104%
16. CC(C)n1c(SCC(=O)Nc2nc(C(C)(C)C)cs2)nc2c1c(=O)n(C)c(=O)n2C [CBK127417]  104%
17. NS(=O)(=O)c1ccc(C(=O)N2CCC3(CCN(C(=O)c4cc(F)c(F)cc4F)C3)C2)cc1 (stereo not shown) [CBK131385]  104%
18. COc1cc2c(cc1OC)CN(Cc1cc(=O)[nH]c(=O)[nH]1)CC2 [CBK126393]  103%
19. CS(=O)(=O)N1CC2(CCN(Cc3cc(=O)[nH]c(=O)[nH]3)CC2)c2ccccc21 [CBK126679]  103%
20. CCNC(=O)N1CC2(CCN(Cc3csc(C)n3)CC2)c2ccccc21 [CBK126712]  103%
21. CCC1(CC)OC(N[C@@H](C)c2ccc(Br)cc2)=NC1=O [CBK126665]  102%
22. OCCN1CC2(CCN(Cc3ncc[nH]3)CC2)c2ccccc21 [CBK126763]  102%
23. CCNC(=O)N1CC2(CCN(CCSC)CC2)c2ccccc21 [CBK126709]  101%
24. CSCCN1CCC2(CC1)CN(C(=O)C(C)C)c1ccccc12 [CBK131473]  101%
25. COc1ccc(Cl)cc1N1CCN(CCN2CCCCC2)CC1 [CBK126445]  100%
26. COc1cc(CN2CCC3(CC2)CN(S(C)(=O)=O)c2ccccc23)cc(OC)c1OC [CBK126669]  100%
27. CN1CCN(C(=O)c2ccc(-c3cncc(-c4ccc(O)cc4)n3)c(F)c2)CC1 [CBK126752]  100%
28. NC(=O)CN1CCC2(CC1)CN(CC(N)=O)c1ccccc12 [CBK126789]  100%
29. NS(=O)(=O)c1ccc(C(=O)N2CCC3(CCN(C(=O)Cc4c[nH]c5ccccc45)C3)C2)cc1 (stereo not shown) [CBK131425]  100%
30. FC(F)(F)c1cccc(CN2CCN(CCc3ccccc3)CC2)c1 [CBK126421]  99.7%
31. CC1(C)Cc2c(sc(NC(=O)c3ccccc3Cl)c2C(=O)O)CO1 [CBK126806]  99.4%
32. O=C(O)CCNc1ncnc2ccccc12 [CBK126920]  99.4%
33. O=C(O)CSc1ccc(Br)c2cccc(C(=O)O)c12 [CBK126919]  99.2%
34. CCC1(CC)OC(NC2CCCc3ccccc32)=NC1=O (stereo not shown) [CBK126555]  99.1%
35. Cc1ccc(C(=O)O)c(NC(=O)c2ccccc2F)c1 [CBK126744]  98.9%
36. O=[N+]([O-])c1cccc(-c2ccc(OC3CCNCC3)cc2)c1 [CBK126465T]  98.8%
37. O=C(c1ccc2c(c1)OCCO2)N1CCC2(CCN(C(=O)c3cc(F)c(F)cc3F)C2)C1 (stereo not shown) [CBK131410]  98.2%
38. CN(C)C(=O)CN1CCC2(CC1)CN(S(C)(=O)=O)c1ccccc12 [CBK126686]  97.7%
39. COc1ccc(Cl)cc1N1CCN(Cc2ccc(C(C)C)cc2)CC1 [CBK126407]  97.6%
40. CS(=O)(=O)N1CC2(CCN(CCCCC3NC(=O)NC3=O)CC2)c2ccccc21 (stereo not shown) [CBK126684]  97.1%
41. O=C(N1CCOCC1)N1CCN(c2cncc(-c3ccc(O)cc3)n2)CC1 [CBK126946T]  96.6%
42. CCNC(=O)N1CC2(CCN(Cc3cc(OC)c(OC)c(OC)c3)CC2)c2ccccc21 [CBK126689]  96.5%
43. CCOC(=O)CN(Cc1ccccc1)Cc1cccc(OC)c1 [CBK126459]  96.4%
44. Cc1nc(CN2CCC3(CC2)CN(S(C)(=O)=O)c2ccccc23)cs1 [CBK126687]  96.3%
45. c1ccc(CC2CCN(Cc3cccnc3)CC2)cc1 [CBK126381]  95.9%
46. Cc1nc(CN2CCC(Cc3ccccc3)CC2)cs1 [CBK126438]  95.7%
47. COc1ccc(CN2CCCc3ccccc32)cc1 [CBK126458]  95.6%
48. COc1ccc(OCCN2CCC3(CC2)CN(S(C)(=O)=O)c2ccccc23)cc1 [CBK126681]  95.5%
49. CCNC(=O)N1CC2(CCN(Cc3ccc(Cl)c(Cl)c3)CC2)c2ccccc21 [CBK126690]  95.4%
50. CCNC(=O)N1CC2(CCN(CC(N)=O)CC2)c2ccccc21 [CBK126701]  95.3%
51. CC(C)C(=O)N1CC2(CCN(Cc3ccc(Cl)c(Cl)c3)CC2)c2ccccc21 [CBK126715]  94.7%
52. CSCCN1CCC2(CC1)CN(CCO)c1ccccc12 [CBK126771]  94.6%
53. O=S(=O)(c1ccc(-c2cncc(-c3ccc(O)cc3)n2)cc1F)N1CCOCC1 [CBK126903]  94.3%
54. CN(C)CCCNC(=O)C1CCN(c2cncc(-c3ccc(O)cc3)n2)CC1 [CBK126929T]  94.1%
55. O=c1cc(CN2CCc3ccccc3C2)[nH]c(=O)[nH]1 [CBK126401]  94%
56. Nc1ncc(-c2ccc(CN3CCOCC3)cc2)nc1-c1ccc(O)cc1 [CBK123798]  93.9%
57. CCN1CC2(CCN(CCCn3c(=O)[nH]c4ccccc43)CC2)c2ccccc21 [CBK131483]  93.7%
58. COc1cc2c(cc1OC)CN(Cc1csc(C)n1)CC2 [CBK126443]  93.4%
59. CCCCc1c(C)nc2ccc(Br)cc2c1SCCC(=O)O [CBK126915]  93.4%
60. NC(=O)CN1CC2(CCN(CCc3c[nH]c4ccccc34)CC2)c2ccccc21 [CBK126784]  93.3%
61. CCC1(CC)OC(N[C@@H](C)c2ccc(Cl)cc2)=NC1=O [CBK126666]  93.2%
62. CCN1CC2(CCN(Cc3cc(OC)c(OC)c(OC)c3)CC2)c2ccccc21 [CBK131477]  93.2%
63. NC(=O)CN1CC2(CCN(Cc3cccc(C(F)(F)F)c3)CC2)c2ccccc21 [CBK126776]  93.1%
64. CCC1(CC)OC(N[C@@H](CO)c2ccccc2)=NC1=O [CBK126756]  92.8%
65. COc1ccc(Nc2nc(-c3cccnc3)cs2)c(OC)c1 [CBK126814]  92.6%
66. CCNC(=O)N1CC2(CCN(CCCCC3NC(=O)NC3=O)CC2)c2ccccc21 (stereo not shown) [CBK126707]  92.2%
67. O=C1NC(=O)C(CCCCN2CCC(Cc3ccccc3)CC2)N1 (stereo not shown) [CBK126435]  91.8%
68. COc1ccc(CCNC(=O)c2cccc(-c3ccc(OC4CCNCC4)cc3)n2)cc1OC [CBK126548T]  91.7%
69. OCCN1CC2(CCN(CCN3CCOCC3)CC2)c2ccccc21 [CBK126766]  91.4%
70. COc1cc2c(cc1OC)CN(Cc1nc3ccccc3[nH]1)CC2 [CBK126390]  91%
71. O=C(c1ccc2ncccc2c1)N1CCC2(CCN(C(=O)c3cc(F)c(F)cc3F)C2)C1 (stereo not shown) [CBK131391]  91%
72. O=C(Cc1c[nH]c2ccccc12)N1CCC2(CCN(C(=O)c3ccc4[nH]c(=O)[nH]c4c3)C2)C1 (stereo not shown) [CBK131452]  90.8%
73. COc1cccc(CN2CCN(CCc3ccccc3)CC2)c1 [CBK126454]  90.5%
74. COc1ccc(Cl)cc1N1CCN(C/C=C/c2ccccc2)CC1 [CBK126415]  90.3%
75. CCNC(=O)N1CC2(CCN(Cc3ccc4ccccc4c3)CC2)c2ccccc21 [CBK126696]  90%
76. Fc1cccc(F)c1CN1CCN(CCc2ccccc2)CC1 [CBK126422]  89.9%
77. COc1ccc(Cl)cc1N1CCN(CCCCC2NC(=O)NC2=O)CC1 (stereo not shown) [CBK126448]  89.4%
78. CC(=O)N1CCN(c2cncc(-c3ccc(O)cc3)n2)CC1 [CBK126948T]  88.9%
79. NC(=O)CN1CCN(CCc2ccccc2)CC1 [CBK126429]  88.4%
80. Cc1nc(CN2CCN(CCc3ccccc3)CC2)cs1 [CBK126457]  87.6%
81. Cc1cc(CN2CCN(CCc3ccccc3)CC2)no1 [CBK126426]  85.8%
82. Nc1cccc(-c2ccc(OC3CCNCC3)cc2)c1 [CBK126959T]  83.9%
83. COC(=O)/C=C/c1cccc(-c2cnc(N)c(-c3ccc(O)cc3)n2)c1 [CBK125689]  83.7%
84. O=C(Cc1c[nH]c2ccccc12)N1CCC2(CCN(C(=O)c3cccnc3)C2)C1 (stereo not shown) [CBK131453]  80.6%
85. CCN1CCC2(CC1)CN(CC(N)=O)c1ccccc12 [CBK126798]  80.4%
86. CSc1cc(-c2ccc(Cl)cc2)c(C(=O)O)s1 [CBK126740]  80.3%
87. COc1ccc(Cl)cc1N1CCN(Cc2cc(OC)c(OC)c(OC)c2)CC1 [CBK126406]  43.3%

Same assay, conditions: human, hela cells, % viability, bulk resorufin, single well

`O=C1NC(=O)C(=Cc2cccc(OCCOc3ccc([N+](=O)[O-])cc3)c2)C(=O)N1` [CBK126857] showed a viability at 28.5 h, 10 µM of 95.7%.
